In patent US20260327264A1, “PEPTIDE INHIBITORS OF INTERLEUKIN-23 RECEPTOR” (Zealand Pharma A/S, priority 2023, published 2026):
Where two headings read alike, the source gives them in different places. *1 amine or outer side, *2 acyl side, *3 side chain or, on linkers, in order; H or OH if unused. Where a SMILES comes first, the peptide text is derived from it. Bridges are numbered along the chain shown (N, C = ends). [ ]: non-standard residue; d: D form. 2Nal = N[C@@H](Cc1ccc2ccccc2c1)C(=O)O; AEF = NCCOc1ccc(C[C@H](N)C(=O)O)cc1; X1 = O=C(Cc1ccc(CN[*:1])cc1)[*:2]; 3Pal = N[C@@H](Cc1cccnc1)C(=O)O; αMeL = CC(C)C[C@](C)(N)C(=O)O; Dab = NCC[C@H](N)C(=O)O; Sar = CNCC(=O)O

Columns and labels:
human IL-23R = target: T1, human IL-23R (Homo sapiens, UniProt Q5VWK5); experiment: Binding assay: displacement of fluorophore (TAMRA)-labelled reference compound from human IL-23R (BRET, Nluc-IL23R fusion protein membranes); conditions: for potency of the compound (in words): potency against IL-23R; for Emax: read-out: % displacement (hIL-23R binding)
T1 construct: Nanoluc luciferase (Nluc); secretion signal encoded by the plasmid (not specified); expressed in transfected cells; crude membranes used in the assay
T1 sequence (Q5VWK5 22-629): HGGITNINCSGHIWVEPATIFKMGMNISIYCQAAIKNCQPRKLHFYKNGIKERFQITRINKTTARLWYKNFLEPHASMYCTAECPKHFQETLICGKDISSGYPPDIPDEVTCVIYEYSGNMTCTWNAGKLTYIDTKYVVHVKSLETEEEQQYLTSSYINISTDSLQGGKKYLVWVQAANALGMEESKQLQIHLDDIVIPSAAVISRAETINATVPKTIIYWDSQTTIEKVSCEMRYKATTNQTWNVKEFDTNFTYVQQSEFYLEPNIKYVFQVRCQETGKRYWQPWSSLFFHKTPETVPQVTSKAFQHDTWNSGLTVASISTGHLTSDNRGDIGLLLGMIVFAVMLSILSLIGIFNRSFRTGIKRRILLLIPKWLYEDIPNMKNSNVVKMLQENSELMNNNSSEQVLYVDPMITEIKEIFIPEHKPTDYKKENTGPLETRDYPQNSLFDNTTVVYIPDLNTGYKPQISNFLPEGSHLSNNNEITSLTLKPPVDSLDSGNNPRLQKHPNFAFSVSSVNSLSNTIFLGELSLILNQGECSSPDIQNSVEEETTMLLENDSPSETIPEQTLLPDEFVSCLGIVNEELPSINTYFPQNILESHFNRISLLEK
Text: The assay principle relies on Bioluminescence Resonance Energy Transfer (BRET) between a fluorophore-labelled reference compound binding to the IL-23R part of a fusion protein consisting of the IL-23R fused to a Nanoluc luciferase enzyme (Nanoluc). The Nanoluc is placed in the N-terminus in close proximity to the binding domain of the ligand. Upon close proximity between the fluorophore of the fluorophore-labelled compound and the Nanoluc of the fusion protein, bioluminescence energy generated from conversion of a Nanoluc substrate, is transferred to the fluorophore resulting in an increase in BRET. In presence of an unlabelled compound, the unlabelled compound displaces the fluorophore-labelled peptide from its binding site resulting in a decrease in BRET. The concentration for which half of the fluorophore-labelled peptide is displaced by the unlabelled compound depends on the affinity of the compound for the IL-23R, and is termed the IC50 concentration.
The plasmid also contained a gene to confer resistance for the antibiotic hygromycin. A cell line stably expressing the Nluc-IL23R fusion protein was generated by transfection of HEK293 cells with the expression plasmid and selected with hygromycin for 3 weeks in Growth medium consisting of DMEM w/Glutamax-I containing, 10% V/V FBS, 1% V/V P/S, 1 mM Sodium Pyruvate, and 1× NEAA, and 0.3 mg/mL hygromycin. The remaining cells were propagated and considered a stable expressing Nluc-IL23R fusion protein pool clone.
Cells expressing the Nluc-IL23R fusion protein were expanded in Growth medium and membranes prepared by homogenization of a cell pellet from 18 T175 flasks (4° C. in subsequent steps). The cell pellet was lysed Tris 10 mM, 7.5, 1 mM EDTA and protease inhibitors (Complete, Roche) and homogenized using a 15 mL glass-dounce by 50 strokes. The homogenate was spun at spin @1500 rpm for 10 min, the supernatant transferred to SV-34 tubes and spun at 40000 g for 20 min at 4° C. to pellet the crude membranes. The supernatant was then removed, the pellet resuspended in 5 mL buffer containing 50 mM HEPES pH 7.4, 5 mM EGTA, and 5 mM MgCl2, and homogenized. Aliquots of the resuspended and homogenized membranes containing the Nluc-IL23R fusion protein were stored at −80° C. until use.
The plate was sealed with light impermeable plate seals, and incubated on an orbital shaker 400 rpm for 2 hours at room temperature. To determine the BRET ratio, the plate seal was removed and 25 μL of the Nanoluc substrate (Promega N1572) diluted 1:500 was added to each well and incubated for 1-2 minutes on an orbital shaker at 400 rpm. […] The BRET ratio was calculated as the fluorescence from the TAMRA/nanoluc bioluminescence.
Compound potency (IC50) and maximal displacement (% displacement) were estimated by computer-aided curve fitting using a 4-parameter logistic (4PL) non-linear model. The IC50 and maximal for each compound was determined by computer-aided curve fitting using a 4-parameter logistic (4PL) non-linear model.

[1] = test system: IL-23 mediated STAT3 signalling (DB cells); experiment: Functional inhibition of IL-23 mediated STAT3 signalling (phospho-STAT3 Tyr705) in DB cells; format: cell-based, human; conditions: for hIL-23 (pSTAT3) antagonist % inhibition: Table 3-2, maximal inhibitory response, EC80 of hIL-23
Method in brief: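 Phospho-STAT3 in lysed DB cells quantified by MSD kit after 90 min exposure to EC80 human IL-23, following 15 min compound pretreatment (37° C, 5% CO2). IC50 and maximal inhibition derived from curves normalized between IL-23-only and buffer-only controls.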

[2] = Peptide stability in simulated gastric fluid (SGF); format: in vitro ADME; conditions: pig, pH 1.2, pepsin, 37° C.
Method in brief: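 Peptide (10 μM final) incubated at 37 °C in USP SGF, pH 1.2 with porcine pepsin 3.2 g/L; aliquots at 0, 1 and 4 h quenched in acidified acetonitrile.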

[3] = EC80 of hIL-23, read-out: IC50 (pSTAT3)
[4] = Table 3-2, EC80 of hIL-23, read-out: hIL-23 (pSTAT3) antagonist IC50

What does the source list for `CNC(=O)[C@H](Cc1cccnc1)NC(=O)[C@H](CCN)NC(=O)[C@@H]1CCC(=O)NCc2ccc(cc2)CC(=O)N[C@@H](CO)C(=O)N[C@H]2CCC(=O)NCC[C@H](NC(=O)[C@H](CCC(N)=O)NC(=O)[C@H](Cc3c[nH]c4ccccc34)NC2=O)C(=O)N[C@@H](Cc2ccc(OCCN)cc2)C(=O)N[C@@H](Cc2ccc3ccccc3c2)C(=O)N[C@@](C)(CC(C)C)C(=O)N1` [Compound 8, [4-Aminomethyl-phenylacetyl](1c)*SE(2c)WQ[Dab](2c)[Y(2-aminoethoxy)][2-Nal][2-Me-Leu]E(1c)[Dab][3-(3-Pyridyl)-Ala]-[NHMe]]?
potency of the compound (in words) (human IL-23R): particularly potent; Emax (human IL-23R): 103%; IC50 [1, 3]: 0.053 nM; IC50 [1, 4]: 0.053 nM; hIL-23 (pSTAT3) antagonist % inhibition [1]: 101%; remaining at 1 h, 10 µM [2]: 91%; remaining at 4 h, 10 µM [2]: 87%

Which results are given for `CNC(=O)[C@H](Cc1cccnc1)NC(=O)[C@H](CCN)NC(=O)[C@@H]1CCC(=O)NCc2ccc(cc2)CC(=O)N[C@@H](C)C(=O)N[C@H]2CCC(=O)NCC[C@H](NC(=O)[C@H](CCC(N)=O)NC(=O)[C@H](Cc3c[nH]c4ccccc34)NC2=O)C(=O)N[C@@H](Cc2ccc(OCCN)cc2)C(=O)N[C@@H](Cc2ccc3ccccc3c2)C(=O)N[C@@](C)(CC(C)C)C(=O)N1` [Compound 20, [4-Aminomethyl-phenylacetyl](1c)*AE(2c)WQ[Dab](2c)[Y(2-aminoethoxy)][2-Nal][2-Me-Leu]E(1c)[Dab][3-(3-Pyridyl)-Ala]-[NHMe]]?
Emax (human IL-23R): 97%; IC50 [1, 4]: 0.026 nM; hIL-23 (pSTAT3) antagonist % inhibition [1]: 101%; remaining at 1 h, 10 µM [2]: 107%; remaining at 4 h, 10 µM [2]: 103%

Which IC50 (human IL-23R) does the source give for `CNC(=O)CC[C@@H]1NC(=O)[C@H](Cc2c[nH]c3ccccc23)NC(=O)[C@@H]2CCC(=O)NCC[C@H](NC1=O)C(=O)N[C@@H](Cc1ccc(OCCN)cc1)C(=O)N[C@@H](Cc1ccc3ccccc3c1)C(=O)N[C@@](C)(CC(C)C)C(=O)N[C@H](C(=O)N[C@@H](CCN)C(=O)N[C@@H](Cc1cccnc1)C(=O)NC)CCC(=O)NCc1ccc(cc1)CC(=O)N[C@@H](CO)C(=O)N2` [Compound 29, [4-Aminomethyl-phenylacetyl](1c)*SE(2c)W[Q(Me)][Dab](2c)[Y(2-aminoethoxy)][2-Nal][2-Me-Leu]E(1c)[Dab][3-(3-Pyridyl)-Ala]-[NHMe]] ([X1]SEWE(NHMe)[Dab][AEF][2Nal][αMeL]E[Dab][3Pal]-NHMe; lactam 3-6, N-10) here?
The IC50 was 0.011 nM.

And the Emax (human IL-23R)?
Its Emax is 96%.

And the IC50 [1, 4]?
Its IC50 is 0.042 nM.

What about the “hIL-23 (pSTAT3) antagonist % inhibition” value [1] of the same compound?
Its value is 99%.

And the remaining at 1 h, 10 µM [2]?
The remaining at 1 h, 10 µM was 94%.

And the remaining at 4 h, 10 µM [2]?
The remaining at 4 h, 10 µM was 90%.

What does the source list for `CNC(=O)[C@H](Cc1cccnc1)NC(=O)[C@H](CCN)NC(=O)[C@@H]1CCC(=O)NCc2ccc(cc2)CC(=O)N[C@@H](C)C(=O)N[C@H]2CCC(=O)NCC[C@H](NC(=O)[C@H](CCC(N)=O)NC(=O)[C@H](Cc3c[nH]c4ccccc34)NC2=O)C(=O)N[C@@H](Cc2c[nH]c3ncccc23)C(=O)N[C@@H](Cc2ccc3ccccc3c2)C(=O)NC(C)(C)C(=O)N1` [Compound 43, [4-Aminomethyl-phenylacetyl](1c)*AE(2c)WQ[Dab](2c)[7-AzaTrp][2-Nal][Aib]E(1c)[Dab][3-(3-Pyridyl)-Ala]-[NHMe]]?
Emax (human IL-23R): 101%; IC50 [1, 4]: 0.54 nM; hIL-23 (pSTAT3) antagonist % inhibition [1]: 98%; remaining at 1 h, 10 µM [2]: 105%

Which “potency of the compound (in words)” value (human IL-23R) does the source give for `CC(C)C[C@]1(C)NC(=O)[C@H](Cc2ccc3ccccc3c2)NC(=O)[C@H](Cc2ccc(OCCN)cc2)NC(=O)[C@@H]2CCNC(=O)CC[C@H](NC(=O)[C@H](CO)NC(=O)Cc3ccc(cc3)CNC(=O)CC[C@@H](C(=O)N[C@@H](CCN)C(=O)N[C@@H](Cc3cccnc3)C(=O)N(C)CC(N)=O)NC1=O)C(=O)N[C@@H](Cc1c[nH]c3ccccc13)C(=O)N[C@@H](CCC(N)=O)C(=O)N2` [Compound 9, [4-Aminomethyl-phenylacetyl](1c)*SE(2c)WQ[Dab](2c)[Y(2-aminoethoxy)][2-Nal][2-Me-Leu]E(1c)[Dab][3-(3-Pyridyl)-Ala][Sar]-[NH2]] ([X1]SEWQ[Dab][AEF][2Nal][αMeL]E[Dab][3Pal][Sar]-NH2; lactam 3-6, N-10) here?
The value was “particularly potent”.

What about the Emax (human IL-23R) of the same compound?
Its Emax is 100%.

And the IC50 [1, 3]?
Its IC50 is 0.025 nM.

And the IC50 [1, 4]?
Its IC50 is 0.025 nM.

What about the “hIL-23 (pSTAT3) antagonist % inhibition” value [1] of the same compound?
Its value is 97%.

What about the remaining at 4 h, 10 µM [2] of the same compound?
The remaining at 4 h, 10 µM was 95%.
